Experiments:
[1] = Rat pharmacokinetic studies: plasma allopregnanolone after oral prodrug or ALLO, and after IV ALLO; assay type: in vivo, male Sprague-Dawley rats; conditions: plasma Allo after oral gavage to rats; doses normalized to 2 mg/kg equivalent ALLO; mean±SD (n≥3) or mean±range (n=2)
Protocol: In order to assess the oral bioavailability of test compounds, pharmacokinetic studies were conducted using the following procedure. The day before drug administration, male Sprague-Dawley rats (240-320 g) were anesthetized and the carotid artery was cannulated. The rats were then allowed to regain consciousness and fasted overnight prior to the commencement of experiments with free access to water. The next morning, formulations containing parent compounds or prodrugs were administered via oral gavage or via the jugular vein cannula, and blood samples were collected from the carotid artery cannula from −5 min up to 24 h post dosing. During the blood sample collection period the rats had free access to water but remained fasted for a further 8 h following drug administration. In these allopregnanolone (ALLO) related studies, the blood samples were centrifuged at 4500×g for 5 min to separate plasma. Plasma samples were stored at −20° C. prior to assay by HPLC-MS-MS. The whole blood or plasma samples were assayed for free drug (i.e. non-glyceride associated drug) and were not hydrolized prior to assay (as was the case with the lymph samples).
FIG. 3 illustrates dose-normalized ALLO plasma concentrations following oral gavage of ALLO related formulations to conscious, carotid artery-cannulated male SD rats. The ALLO oral formulation for each rat contained 2 mg of parent ALLO (i.e., non-prodrug allopregnanolone) suspended in 2 ml of suspending vehicle (0.50 sodium carboxymethyl cellulose, 0.4% Tween 80 and 0.9% NaCl in water). Prodrug formulations for each rat contained 2 mg of the ALLO prodrug dispersed in 40 mg oleic acid, 25 mg Tween 80 and 2 ml PBS. Doses were normalized to a 2 mg/kg equivalent dose of ALLO. Data are shown as mean±SD n≥3 or mean±range when n=2. […] Doses are normalized to a 2 mg/kg equivalent ALLO dose and data are presented as mean±SD when n≥3 or mean±range when n=2.
Also shown (bottom) is the calculated area under the curve (AUC) over 0-24 h for each of the test compounds as a fraction of the IV-administered allpregnanolone control.

[2] = background statement; cited from earlier work
[3] = test system: porcine pancreatic lipase; experiment: In vitro hydrolysis of prodrugs by incubation with porcine pancreatic lipase; assay type: in vitro ADME; conditions: 37° C.; for hydrolysis of prodrug to its monoglyceride form: simulated intestinal micellar solution, 0-180 min
Protocol: To provide for higher throughput of experiments, unless otherwise stated, in vitro hydrolysis of compounds will generally be performed via incubation with porcine pancreatic lipase. This provides a more reproducible source of pancreatic enzymes, facilitates enhanced experimental throughput, and is also a greater challenge than collected rat enzymes (since enzyme activity in rat intestinal fluid is low). Briefly, pancreatic lipase solution was prepared prior to the hydrolysis experiment by dispersion of 1 g porcine pancreatin in 5 ml of lipolysis buffer and 16.9 μL of 0.5 M NaOH. The suspension was mixed well and centrifuged at 3500 rpm for 15 minutes at 5° C. to provide a supernatant. An amount of 1000 mL of lipolysis buffer was prepared with 0.474 g of tris-maleate (2 mM), 0.206 g of CaCl2.H2O (1.4 mM) and 8.775 g of NaCl (150 mM) adjusted with NaOH to pH 6.5. To assess the potential for prodrug hydrolysis in the intestine, 20 μL of prodrug solution (1 mg/mL dissolved in acetonitrile), 900 μL of simulated intestinal micellar solution [prepared with 0.783 g of NaTDC (3 mM) and 0.291 g of phosphatidylcholine (0.75 mM) in 500 mL lipolysis buffer] and 100 μL of enzyme solution were incubated at 37° C. 20 μL samples of the incubation solution were taken at 0, 5, 10, 15, 30, 60, 90, 120 and 180 minutes post incubation and added to 180 μL of MeCN to stop lipolysis. The mixture was vortexed and centrifuged at 5000 rpm for 5 minutes to precipitate proteins prior to analysis. The supernatant was analyzed by HPLC-MS for residual compound concentrations, and the potential products of compound hydrolysis analyzed.
The data for prodrug compounds I-1 and I-2 are shown in FIG. 8 and FIG. 9, respectively. […] The monoglycerides were then converted at different rates to an acid intermediate and/or free parent ALLO. An acid intermediate was not observed for prodrug I-2. The acid intermediate of prodrug I-1 is believed to have the following structure, based on HPLC-MS data: […]

[4] = test system: dog plasma supplemented with lipoprotein lipase (LPL); experiment: In vitro hydrolysis of prodrugs in dog plasma supplemented with lipoprotein lipase; assay type: in vitro ADME; conditions: 37° C.; for hydrolysis of prodrug to its monoglyceride form: 0-180 min
Protocol: (§1) In order to probe the release of free drug from TG prodrugs in the systemic circulation, prodrugs are incubated with plasma (rat, mouse, dog, pig or human) supplemented with lipoprotein lipase (LPL, 200 IU/ml). LPL is a key enzyme required for the hydrolysis of lipoprotein associated TG in the systemic circulation and is therefore expected to be a key contributor to lipolysis of the re-esterified drug-TG construct in plasma, largely via liberation of fatty acids in the sn-1 and the sn-3 position of the TG-mimetic, prior to drug release from the 2′ position via esterase hydrolysis. […] is tethered to the luminal surface of vascular endothelial cells under physiological conditions. In the current in vitro studies, plasma is therefore supplemented with LPL to better reflect the in vivo situation.
(§2) To start hydrolysis, 10 μl of LPL solution (10,000 IU/ml) was added to a mixture of 10 μl of prodrug solution (1 mg/ml dissolved in acetonitrile) and 500 μl of blank plasma. The mixture was incubated at 37° C. Samples (20 μl) of the incubation solution were taken at 0, 5, 15, 30, 60, 90, 120 and 180 minutes post-incubation and added to 180 μl of MeCN to stop lipolysis. The mixture was vortexed and centrifuged at 4500×g for 5 minutes to precipitate proteins prior to analysis. The supernatant was analyzed by HPLC-MS/MS for the potential products (MG form, acid form, and free drug) of prodrug hydrolysis.
(§3) The in vitro hydrolysis profile of selected prodrug compounds was determined in rat, dog, and/or human plasma supplemented with LPL. The data for prodrug compound I-1 in rat and dog plasma are shown in FIG. 10 and FIG. 11, respectively. The data for prodrug compound I-2 in rat, dog, and human plasma are shown in FIG. 12, FIG. 13, and FIG. 14, respectively. […] The monoglycerides were then converted at different rates to an acid intermediate and/or free parent ALLO. An acid intermediate was not observed for prodrug I-2. The acid intermediate of prodrug I-1 is believed to have the following structure, based on HPLC-MS data: […]

[5] = test system: rat plasma supplemented with lipoprotein lipase (LPL); experiment: In vitro hydrolysis of prodrugs in rat plasma supplemented with lipoprotein lipase; assay type: in vitro ADME; conditions: 37° C.; for hydrolysis of prodrug to its monoglyceride form: 0-180 min
Protocol: as §1, §2, §3

[6] = test system: human plasma supplemented with lipoprotein lipase (LPL); experiment: In vitro hydrolysis of prodrugs in human plasma supplemented with lipoprotein lipase; assay type: in vitro ADME; conditions: 37° C.
Protocol: as §1
To start hydrolysis, 10 μl of LPL solution (10,000 IU/ml) was added to a mixture of 10 μl of prodrug solution (1 mg/ml dissolved in acetonitrile) and 500 μl of blank plasma. The mixture was incubated at 37° C. […] The supernatant was analyzed by HPLC-MS/MS for the potential products (MG form, acid form, and free drug) of prodrug hydrolysis.
The in vitro hydrolysis profile of selected prodrug compounds was determined in rat, dog, and/or human plasma supplemented with LPL. […]

CCCCCCCCCCCCCCCC(=O)OCC(COC(=O)CCCCCCCCCCCCCCC)OC(=O)C(C)(C)CCCCCCCC(=O)O[C@@H]1CC[C@@]2(C)[C@@H](CC[C@@H]3[C@@H]2CC[C@]2(C)[C@@H](C(C)=O)CC[C@@H]32)C1 [Compound I-12, 10-((3R,5S,8R,9S,10S,13S,14S,17S)-17-acetyl-10,13-dimethylhexadecahydro-1H-cyclopenta[a]phenanthren-3-yl) 1-(1,3-bis(palmitoyloxy)propan-2-yl) 2,2-dimethyldecanedioate]
Cmax [1]: below LOQ)

CCCCCCCCCCC(=O)O[C@H]1CC[C@H]2[C@@H]3CCC4=CC(=O)CC[C@]4(C)[C@H]3CC[C@]12C [testosterone undecanoate]
bioavailability of testosterone after oral administration of the undecanoate ester [2]: < 5%

CCCCCCCCCCCCCCCC(=O)OCC(COC(=O)CCCCCCCCCCCCCCC)OC(=O)CCCCCCCCC(=O)O[C@@H]1CC[C@@]2(C)[C@@H](CC[C@@H]3[C@@H]2CC[C@]2(C)[C@@H](C(C)=O)CC[C@@H]32)C1 [Compound I-1, 1-((3R,5S,8R,9S,10S,13S,14S,17S)-17-acetyl-10,13-dimethylhexadecahydro-1H-cyclopenta[a]phenanthren-3-yl) 10-(1,3-bis(palmitoyloxy)propan-2-yl) decanedioate]
hydrolysis of prodrug to its monoglyceride form [3]: rapidly converted to the prodrug's monoglyceride form
hydrolysis of prodrug to its monoglyceride form [4]: rapidly converted to the prodrug's monoglyceride form
hydrolysis of prodrug to its monoglyceride form [5]: rapidly converted to the prodrug's monoglyceride form

CCCCCCCCCCCCCCCC(=O)OCC(COC(=O)CCCCCCCCCCCCCCC)OC(=O)CC(C)CC(=O)OC(C)OC(=O)O[C@@H]1CC[C@@]2(C)[C@@H](CC[C@@H]3[C@@H]2CC[C@]2(C)[C@@H](C(C)=O)CC[C@@H]32)C1 (stereo partly drawn) [Compound I-2, 1-(1-(((((3R,5S,8R,9S,10S,13S,14S,17S)-17-acetyl-10,13-dimethylhexadecahydro-1H-cyclopenta[a]phenanthren-3-yl)oxy)carbonyl)oxy)ethyl) 5-(1,3-bis(palmitoyloxy)propan-2-yl) 3-methylpentanedioate]
acid intermediate of hydrolysis ([3]; HPLC-MS): not observed
hydrolysis of prodrug to its monoglyceride form [3]: rapidly converted to the prodrug's monoglyceride form
acid intermediate of hydrolysis [4]: not observed
hydrolysis of prodrug to its monoglyceride form [4]: rapidly converted to the prodrug's monoglyceride form
acid intermediate of hydrolysis [6]: not observed
hydrolysis of prodrug to its monoglyceride form ([6]; 0-180 min): rapidly converted to the prodrug's monoglyceride form
acid intermediate of hydrolysis [5]: not observed
hydrolysis of prodrug to its monoglyceride form [5]: rapidly converted to the prodrug's monoglyceride form

CCCCCCCCCCCCCCCC(=O)OCC(COC(=O)CCCCCCCCCCCCCCC)OC(=O)C(C)(C)CCCCCCCCCC(=O)O[C@@H]1CC[C@@]2(C)[C@@H](CC[C@@H]3[C@@H]2CC[C@]2(C)[C@@H](C(C)=O)CC[C@@H]32)C1 [Compound I-13, 12-((3R,5S,8R,9S,10S,13S,14S,17S)-17-acetyl-10,13-dimethylhexadecahydro-1H-cyclopenta[a]phenanthren-3-yl) 1-(1,3-bis(palmitoyloxy)propan-2-yl) 2,2-dimethyldodecanedioate]
Cmax [1]: below LOQ)
